Experimental data reported in ChEMBL document CHEMBL4483862, “Open-source discovery of chemical leads for next-generation chemoprotective antimalarials” (2018).
pIC50: −log10 of the molar value.

Test system: Plasmodium berghei
Assay: Luciferase/luciferin-expressing antifolate-resistant parasites were used to infect a culture of HepG2 cells that were pre-incubated with compounds. Infected hepatocytes emit light due to the luciferase reaction. Assay results are presented as the percent inhibition of light emission compared to control. […]
Format: functional
Details: sporozoite; for IC90: read-out: LUCIFERASE INFECTION ASSAY - IC90
[1] = read-out: LUCIFERASE INFECTION ASSAY - IC50

| Compound | IC90 [µM] | pIC50 [1] | further results |
| --- | --- | --- | --- |
| COCCNc1nc2cnc(-c3ccc4ccccc4c3)cc2n1C | > 10 | – | pIC50 (FFLUC_HILL_SLOPE 5.54, FFLUC_R_SQUARED 0.844, PBLUC_HILL_SLOPE 0.43, PBLUC_R_SQUARED 0.895, read-out: LUCIFERASE INFECTION ASSAY - IC50): 6.89 |
| Cc1cc(/C=C(\C#N)C(=O)OCc2ccccn2)c(C)n1CC(C)C | > 10 | – | pIC50 (PBLUC_HILL_SLOPE 0.483, PBLUC_R_SQUARED 0.335, read-out: LUCIFERASE INFECTION ASSAY - IC50): 5.18 |
| Cn1ccc(NC(=O)c2cccc(S(=O)(=O)N(Cc3ccccc3)c3ccccc3Cl)c2)n1 | > 10 | – | pIC50 (PBLUC_HILL_SLOPE 2.72, PBLUC_R_SQUARED 0.559, read-out: LUCIFERASE INFECTION ASSAY - IC50): 5.31 |
| CNC(=O)Cc1ccc(NC(=O)CCSC)cc1 | > 10 | < 5.00 | – |
| CCN1CCN(c2ccc(Cl)cc2NC(=O)c2sc(-c3ccccc3)nc2C)CC1 | 4.23 | – | pIC50 (PBLUC_HILL_SLOPE 12.2, PBLUC_R_SQUARED 0.286, read-out: LUCIFERASE INFECTION ASSAY - IC50): 5.45 |
| CN(CC(=O)Nc1ccc(Cl)c(C(F)(F)F)c1)CC(=O)Nc1ccc(Cl)cn1 | > 10 | < 5.00 | – |
| CN(Cc1ccccc1N1CCOCC1)C(=O)/C=C/c1c(Cl)nc2ccccn12 | > 10 | < 5.00 | – |
| O=C1C=C(SCC(=O)c2ccc([N+](=O)[O-])cc2)SC(c2ccccc2Cl)C1 (stereo unspecified) | > 7.86 | < 5.10 | – |
| Cn1cc(C(=O)Nc2ccc(Sc3ccc(Br)cc3)cc2)cn1 | 6.49 | – | pIC50 (HEPG2TOX_HILL_SLOPE 16.3, HEPG2TOX_R_SQUARED 0.811, PBLUC_HILL_SLOPE 1.99, PBLUC_R_SQUARED 0.873, read-out: LUCIFERASE INFECTION ASSAY - IC50): 5.67 |
| CC(Nc1ccc(Cc2nc3ccccc3s2)cc1)C(=O)N1CCNC1=O (stereo unspecified) | 9.74 | – | pIC50 (PBLUC_HILL_SLOPE 6.15, PBLUC_R_SQUARED 0.163, read-out: LUCIFERASE INFECTION ASSAY - IC50): 5.17 |
| O=C(Nc1nc(C23CC4CC(CC(C4)C2)C3)cs1)c1cnccn1 | > 10 | – | pIC50 (PBLUC_HILL_SLOPE 9.13, PBLUC_R_SQUARED 0.249, read-out: LUCIFERASE INFECTION ASSAY - IC50): 5.10 |
| CCCc1c(Cc2c(F)cccc2Cl)c(=O)oc2cc(OC(=O)c3ccccc3Cl)ccc12 | > 6.8 | < 5.17 | – |
| Cc1ccc(NNC(=O)c2cc3ccccc3o2)cc1Cl | > 10 | – | pIC50 (PBLUC_HILL_SLOPE 2.35, PBLUC_R_SQUARED 0.383, read-out: LUCIFERASE INFECTION ASSAY - IC50): 5.20 |
| COc1ccc(NS(=O)(=O)c2ccc3oc(Nc4cc(C)on4)nc3c2)cc1 | 9.75 | – | pIC50 (HEPG2TOX_HILL_SLOPE 5.63, HEPG2TOX_R_SQUARED 0.393, PBLUC_HILL_SLOPE 4.89, PBLUC_R_SQUARED 0.566, read-out: LUCIFERASE INFECTION ASSAY - IC50): 5.21 |
| CN(/N=C/c1cc(Cl)cc(Cl)c1O)c1ccc([N+](=O)[O-])cn1 | > 9.67 | – | pIC50 (FFLUC_HILL_SLOPE 1.05, FFLUC_R_SQUARED 0.5, read-out: LUCIFERASE INFECTION ASSAY - IC50): < 5.01 |
| CN(C)c1cccc(-c2cnc3cnc(-c4ccccc4)cn23)c1 | > 10.5 | < 4.98 | – |
| COc1ccc2nc(C)cc(N3CCc4c(sc(N)c4C#N)C3)c2c1 | > 10 | < 5.00 | – |
| Cc1cc(C(=O)CN2CCN(C)CC2)c(C)n1C(c1ccccc1)c1ccccc1 | > 10 | – | pIC50 (PBLUC_HILL_SLOPE 2.18, PBLUC_R_SQUARED 0.339, read-out: LUCIFERASE INFECTION ASSAY - IC50): 5.17 |
| CN(C(=O)CCN1C(=O)CCC1=O)c1ccccc1 | > 10 | < 5.00 | – |
| Cn1c(-c2ccccc2)nc2cnc(-c3cccc(Cl)c3)cc21 | 3.69 | – | pIC50 (HEPG2TOX_HILL_SLOPE 2.23, HEPG2TOX_R_SQUARED 0.754, PBLUC_HILL_SLOPE 11.6, PBLUC_R_SQUARED 0.591, read-out: LUCIFERASE INFECTION ASSAY - IC50): 5.51 |
| COc1ccccc1-c1cc(-c2cccc(C(F)(F)F)c2)cnc1N | > 9.58 | – | pIC50 (HEPG2TOX_HILL_SLOPE 7.68, HEPG2TOX_R_SQUARED 0.737, read-out: LUCIFERASE INFECTION ASSAY - IC50): < 5.02 |
| COc1ccccc1C(=O)/C=C/c1ccc(N2CCCCC2)c([N+](=O)[O-])c1 | > 10 | – | pIC50 (HEPG2TOX_HILL_SLOPE 11.8, HEPG2TOX_R_SQUARED 0.223, read-out: LUCIFERASE INFECTION ASSAY - IC50): < 5.00 |

| Compound | IC90 [µM] | pIC50 [1] | further results |
| --- | --- | --- | --- |
| COc1ccc(C)cc1CN1CCN(c2ccc(S(=O)(=O)NC(C)(C)C)cc2[N+](=O)[O-])CC1 | > 10 | – | pIC50 (PBLUC_HILL_SLOPE 0.589, PBLUC_R_SQUARED 0.215, read-out: LUCIFERASE INFECTION ASSAY - IC50): < 5.00 |
| CSc1sc(C(=O)Nc2ccc(Cl)cc2)c2c1S(=O)(=O)N(C)c1ccccc1-2 | > 7.32 | < 5.14 | – |
| COC(=O)c1cc2c(N)c(C(=O)c3ccc(Cl)cc3)sc2nc1C(OC)OC | > 7.84 | < 5.11 | – |
| Cc1nc(=O)c2c([nH]1)NC(=O)CC2c1cc(F)ccc1F (stereo unspecified) | > 11.3 | < 4.95 | – |
| Cn1c(-c2cccnc2)cc2cnc(Nc3ccc(OC(F)(F)F)cc3)cc21 | 9.47 | – | pIC50 (HEPG2TOX_HILL_SLOPE 2.53, HEPG2TOX_R_SQUARED 0.903, PBLUC_HILL_SLOPE 4.19, PBLUC_R_SQUARED 0.443, read-out: LUCIFERASE INFECTION ASSAY - IC50): 5.25 |
| O=C(NCCSCc1ccccc1Cl)c1cccs1 | 8.99 | – | pIC50 (PBLUC_HILL_SLOPE 3.91, PBLUC_R_SQUARED 0.447, read-out: LUCIFERASE INFECTION ASSAY - IC50): 5.29 |
| COc1ccc(C2C3CCc4ccccc4C3=NN2CCO)cc1 (stereo unspecified) | > 10.2 | – | pIC50 (HEPG2TOX_HILL_SLOPE 8.7, HEPG2TOX_R_SQUARED 0.737, PBLUC_HILL_SLOPE 7.39, PBLUC_R_SQUARED 0.683, read-out: LUCIFERASE INFECTION ASSAY - IC50): < 4.99 |
| Clc1ccc2c(NCc3coc(-c4cccs4)n3)ncnc2c1 | 6.02 | – | pIC50 (HEPG2TOX_HILL_SLOPE 0.478, HEPG2TOX_R_SQUARED 0.927, PBLUC_HILL_SLOPE 2.76, PBLUC_R_SQUARED 0.49, read-out: LUCIFERASE INFECTION ASSAY - IC50): 5.57 |
| c1ccc(Cn2c(-c3cccnc3)cc3cnc(Nc4ccc(N5CCOCC5)cc4)cc32)cc1 | 8.6 | – | pIC50 (HEPG2TOX_HILL_SLOPE 16.1, HEPG2TOX_R_SQUARED 0.869, PBLUC_HILL_SLOPE 3.82, PBLUC_R_SQUARED 0.619, read-out: LUCIFERASE INFECTION ASSAY - IC50): 5.32 |
| CCOC(=O)c1c(/C=C/C(=O)Nc2nc(C)cs2)c(C)n(CC)c1C | > 10 | – | pIC50 (PBLUC_HILL_SLOPE 0.644, PBLUC_R_SQUARED 0.0145, read-out: LUCIFERASE INFECTION ASSAY - IC50): < 5.00 |
| CCN1CCN(c2nc(-c3ccccc3)nc3sc(-c4ccccc4)cc23)CC1 | > 10 | – | pIC50 (HEPG2TOX_HILL_SLOPE 6.07, HEPG2TOX_R_SQUARED 0.861, PBLUC_HILL_SLOPE 3.24, PBLUC_R_SQUARED 0.199, read-out: LUCIFERASE INFECTION ASSAY - IC50): 5.16 |
| CCNC(=O)N1CCc2nc(Nc3cc(C)cc(C)c3)ncc2C1 | > 10.1 | < 5.00 | – |
| CCCCn1nc(C(=O)NC(c2ccccc2)c2ccc(OC)cc2)c2ccccc2c1=O (stereo unspecified) | > 10 | < 5.00 | – |
| COc1ccc(Nc2ccn3ncc(-c4ccc(N(C)C)cc4)c3n2)cn1 | 5.31 | – | pIC50 (HEPG2TOX_HILL_SLOPE 7.66, HEPG2TOX_R_SQUARED 0.327, PBLUC_HILL_SLOPE 65.7, PBLUC_R_SQUARED 0.275, read-out: LUCIFERASE INFECTION ASSAY - IC50): 5.29 |
| CCN(CCO)c1ccc(Nc2cc(C(=O)Nc3ccccc3)ncn2)cc1 | 7.92 | – | pIC50 (HEPG2TOX_HILL_SLOPE 13.5, HEPG2TOX_R_SQUARED 0.28, PBLUC_HILL_SLOPE 1.45, PBLUC_R_SQUARED 0.807, read-out: LUCIFERASE INFECTION ASSAY - IC50): 5.76 |
| CC(C)(C)c1ccc(-n2nnnc2-c2ccccc2)cc1 | > 11.9 | – | pIC50 (PBLUC_HILL_SLOPE 1.83, PBLUC_R_SQUARED 0.134, read-out: LUCIFERASE INFECTION ASSAY - IC50): 5.18 |
| COc1ccc(CC(N)c2csc(NC(=O)C(c3ccccc3)c3ccccc3)n2)cc1 (stereo unspecified) | 5.8 | – | pIC50 (HEPG2TOX_HILL_SLOPE 15.4, HEPG2TOX_R_SQUARED 0.86, PBLUC_HILL_SLOPE 4.59, PBLUC_R_SQUARED 0.756, read-out: LUCIFERASE INFECTION ASSAY - IC50): 5.44 |
| COc1ccc(-c2cc(NC(=O)c3ccc(OCc4c(C)noc4C)cc3)ccc2OC)cc1 | > 10 | – | pIC50 (HEPG2TOX_HILL_SLOPE 5.81, HEPG2TOX_R_SQUARED 0.572, PBLUC_HILL_SLOPE 1.68, PBLUC_R_SQUARED 0.219, read-out: LUCIFERASE INFECTION ASSAY - IC50): < 5.00 |
| Clc1nc2ccc3nsnc3c2nc1Cl | 3.65 | – | pIC50 (HEPG2TOX_HILL_SLOPE 109, HEPG2TOX_R_SQUARED 0.525, PBLUC_HILL_SLOPE 3.55, PBLUC_R_SQUARED 0.399, read-out: LUCIFERASE INFECTION ASSAY - IC50): 5.71 |
| COc1cc(C(=O)N(C)C(c2ccccc2)c2ccccc2)ccc1OCC(C)C | > 10 | – | pIC50 (FFLUC_HILL_SLOPE 13.6, FFLUC_R_SQUARED 0.558, HEPG2TOX_HILL_SLOPE 7.8, HEPG2TOX_R_SQUARED 0.217, read-out: LUCIFERASE INFECTION ASSAY - IC50): < 5.00 |
| COCCN(Cc1nnc(-c2cccs2)o1)C(=O)c1cc(C2CC2)nc2c1cnn2C(C)C | > 10 | < 5.00 | – |
